Values of other authors in paper PMC11190158, “Study on the design, synthesis, and activity of anti-tumor staple peptides targeting MDM2/MDMX” (Frontiers in Chemistry, 2024).

Columns and labels:
MDM2 = tested on: MDM2; parameters: method as in 2 sources, one per row (each row's own in cited_ref): ref Zhan and Lu, 2011; Brown et al., 2013; Wade et al., 2013 ||| ref Zhan et al., 2012a; Zhan et al., 2012b; Li et al., 2021; conditions: in words, surface plasmon resonance and fluorescence polarization, ref Zhan et al., 2012a, 2012b, Li et al., 2021; cited from earlier work
MDMX = tested on: MDMX; parameters: method as in 2 sources, one per row (each row's own in cited_ref): ref Zhan and Lu, 2011; Brown et al., 2013; Wade et al., 2013 ||| ref Zhan et al., 2012a; Zhan et al., 2012b; Li et al., 2021; conditions: in words, surface plasmon resonance and fluorescence polarization, ref Zhan et al., 2012a, 2012b, Li et al., 2021; cited from earlier work

## LTFLEYWAQLMQ [PMI-M3]
MDM2
  binding to MDM2: binds well
MDMX
  binding to MDMX: binds well
